Experimental data published in patent publication US20260215420A1 (Solasta Bio Limited, priority 2022, published 2026).

What was measured:
Myzus persicae = assay: Leaf dip assay for aphids; format: in vivo; conditions: unformulated peptide, compared to vehicle and Spirotetramat, up to 120 hours
Procedure: Leaf Dip Assay—Aphids or Plutella xylostella Based on IRAC susceptibility test method 019 (https://irac-online.org/methods/aphids-adultnymphs/). Fill a small 4 cm wide 3 cm high dish with a 1% agar solution (ensuring 1 cm gap between the agar and the lid) and leave to set. Dip a 2.5 cm leaf disc into 3 ml of treatment solution allowing the treatment to coat the leaf. Leave the disc to dry for 1 hour and place onto the set agar. Place insects (aphids or Plutella xylostella) onto each of the leaf discs. Each unit is sealed with a close-fitting, ventilated lid. Place the agar dishes in a small plastic tray lined with moist tissue paper and ensure the water trays in the bottom of the incubator are filled with clean water and place within the incubator. An assessment of mortality is made at 72, 96 and 120 hours. Leaf dip assays for aphids were performed with SB-P-65, and compared to a negative control vehicle and a current commercial insecticide Spirotetramat. The activity of SB-P-65 is shown in FIGS. 20 and 21; SB-P-65 has good activity whilst being eco-friendly and targeted to specific pests unlike broad spectrum chemical insecticides such as Spirotetramat. Leaf dip assays for aphids were performed with SB-P-66, and compared to a negative control vehicle and a current commercial insecticide Spirotetramat. […]

[1] = gut and MT tissue and contents of final-stage P. xylostella larvae in Schneider's medium; conditions: Plutella xylostella, 25° C., up to 24 h
[2] = format: in vitro ADME, Plutella xylostella
Procedure: Plutella xylostella Tissue Biostability Study of SB-P-70 and SB-P-103
SB-P-70 and SB-P-103 were incubated with the gut and MT tissue and contents of final-stage P. xylostella larvae in Schneider's medium at 25° C. Control samples were prepared with peptides in Schneider's medium with no tissue and tissue in Schneider's medium with no peptides. The condition of the peptides after incubation with the tissue was assessed by LC-MS at: 4 h; 8 h; 16 h; and 24 h time points (FIGS. 13 and 14).
In contrast, SB-P-103 remained 44% intact after 24 h tissue incubation.

Plutella xylostella = assay: Leaf dip assay for Plutella xylostella; format: in vivo; conditions: unformulated peptide, compared to vehicle and Chlorantraniliprole
Procedure: Leaf Dip Assay—Aphids or Plutella xylostella Based on IRAC susceptibility test method 019 (https://irac-online.org/methods/aphids-adultnymphs/). Fill a small 4 cm wide 3 cm high dish with a 1% agar solution (ensuring 1 cm gap between the agar and the lid) and leave to set. Dip a 2.5 cm leaf disc into 3 ml of treatment solution allowing the treatment to coat the leaf. Leave the disc to dry for 1 hour and place onto the set agar. Place insects (aphids or Plutella xylostella) onto each of the leaf discs. Each unit is sealed with a close-fitting, ventilated lid. Place the agar dishes in a small plastic tray lined with moist tissue paper and ensure the water trays in the bottom of the incubator are filled with clean water and place within the incubator. An assessment of mortality is made at 72, 96 and 120 hours. Leaf dip assays for Plutella xylostella were performed with SB-P-70, and compared to a negative control vehicle and a current commercial insecticide Chlorantraniliprole. The activity of SB-P-70 is shown in FIG. 6; SB-P-70 has good activity whilst being eco-friendly and targeted to specific pests unlike broad spectrum chemical insecticides such as Chlorantraniliprole

Spodoptera frugiperda = assay: Lepidoptera mortality assay (artificial diet); format: in vivo; conditions: 1×10^−4 M in artificial diet, L1 larvae, 168 hrs, compared to vehicle and DDT
Text: Lepidoptera Mortality Assay Against Spodoptera frugiperda Frontier Lepidoptera Artificial diet was made up by preparing agar at 1% and then mixing it with artificial diet powder. Peptide solution was aliquoted in 10 cells and diet poured straight onto it. The final concentration of the peptide was 1×10^−4 M, and each peptide was aliquoted in 10 cells. Once the diet solidified and cooled down, one L1 larvae was infested in each cell. The trays were sealed with heat and let larva were allowed to develop for 168 hrs. Finally, pupation and mortality were scored for. Lepidoptera mortality assays were performed with SB-P-70, and compared to a negative control vehicle and the insecticide dichlorodiphenyltrichloroethane (DDT). The activity of SB-P-70 is shown in FIG. 32; SB-P-70 has good activity whilst being eco-friendly and targeted to specific pests unlike broad spectrum chemical insecticides such as DDT.

H-PAFSSWG-NH2 [SB-P-66, Hy-PAFSSWG-[NH2]]
activity against Myzus persicae (mortality) (Myzus persicae): good activity

H-KVKFSAWG-NH2
cleaved bond [1]: Ser5-Ala6, major

CC(C)[C@H](NC(=O)C(NC(=O)[C@H](CCCCN)NC(=O)[C@H](CCC(N)=O)NC(=O)[C@@H](N)CCCNC(=N)N)[C@@H](C)O)C(=O)N[C@@H](Cc1ccccc1)C(=O)N[C@@H](CO)C(=O)N[C@@H](CO)C(=O)N[C@@H](Cc1c[nH]c2ccccc12)C(=O)NCC(N)=O (stereo partly shown) [SB-P-65, Hy-RQKTVFSSWG-[NH2]]
activity against Myzus persicae (mortality) (Myzus persicae): good activity

H-KVKFSAWG-NH2 [SB-P-70, Hy-KVKFSAWG-[NH2]]
condition of the peptide after incubation with the tissue [2]: completely degraded
site of proteolytic cleavage [2]: between Ser5 and Ala6
activity against Plutella xylostella (mortality) (Plutella xylostella): good activity
activity against Spodoptera frugiperda (pupation and mortality) (Spodoptera frugiperda): good activity
